In ChEMBL document CHEMBL5150064 (J Med Chem, 2022):
pEC50, pKi: −log10 of the molar value. ≈ marks a conversion by molar mass, not a printed value. Calls of active or inactive are those of the source. No cut-off for these calls is given here.

Experiments:
[1] = Kinetic solubility of the compound at pH 7.4; format: physicochemical; details: buffer, read-out: Kinetic_solubility
[2] = biological target: Phosphatidylinositol 4,5-bisphosphate 3-kinase catalytic subunit alpha isoform (Homo sapiens, UniProt P42336); experiment: Inhibition of PI3Kalpha (unknown origin) using PIP2:3PS as substrate in presence of ATP measured after 120 mins by ADP-Glo assay
[3] = Lipophilicity, logD of compound in 1-Octanol/PBS at pH 7.4 by LC-MS/MS method; format: physicochemical
Homo sapiens [4] = species on record: Homo sapiens; experiment: Selectivity ratio of Ki for PI3Kdelta (unknown origin) to Ki for PI3Kalpha (unknown origin)
Homo sapiens [5] = species on record: Homo sapiens; experiment: Selectivity ratio of EC50 for PI3Kalpha H1047R mutant in human HCC1954 cells assessed as reduction in PRAS40 phosphorylation to EC50 for wild type PI3Kalpha in human HDQ-P1 cells assessed as reduction in PRAS40 phosphorylation; format: cell-based
[6] = biological target: Phosphatidylinositol 4,5-bisphosphate 3-kinase catalytic subunit alpha isoform (Homo sapiens, UniProt P42336, H1047R)
[7] = Apparent permeability across apical to basolateral side in MDCK cells at 10 uM measured upto 180 mins by LC-MS/MS method; format: ADME, cell-based, Canis lupus familiaris; details: dog
[8] = Clearance in Sprague-Dawley rat plasma at 1 mg/kg, iv measured upto 8 hrs by LC-MS/MS analysis; format: ADME, organism-based
[9] = Oral bioavailability in Sprague-Dawley rat plasma at 5 mg/kg measured upto 8 hrs by LC-MS/MS method; format: ADME, organism-based
[10] = tested on: Phosphatidylinositol 4,5-bisphosphate 3-kinase catalytic subunit alpha isoform (Homo sapiens), P42336 [H1047R]; experiment: Induction of P110alpha H1047R mutant degradation in human HCC1954 cells at 0.012 to 1 uM after 24 hrs; format: cell-based; details: dose 0.012-1 µM
Sequence of Phosphatidylinositol 4,5-bisphosphate 3-kinase catalytic subunit alpha isoform (Homo sapiens), P42336 [H1047R] (P42336 whole entry H1047R, canonical isoform): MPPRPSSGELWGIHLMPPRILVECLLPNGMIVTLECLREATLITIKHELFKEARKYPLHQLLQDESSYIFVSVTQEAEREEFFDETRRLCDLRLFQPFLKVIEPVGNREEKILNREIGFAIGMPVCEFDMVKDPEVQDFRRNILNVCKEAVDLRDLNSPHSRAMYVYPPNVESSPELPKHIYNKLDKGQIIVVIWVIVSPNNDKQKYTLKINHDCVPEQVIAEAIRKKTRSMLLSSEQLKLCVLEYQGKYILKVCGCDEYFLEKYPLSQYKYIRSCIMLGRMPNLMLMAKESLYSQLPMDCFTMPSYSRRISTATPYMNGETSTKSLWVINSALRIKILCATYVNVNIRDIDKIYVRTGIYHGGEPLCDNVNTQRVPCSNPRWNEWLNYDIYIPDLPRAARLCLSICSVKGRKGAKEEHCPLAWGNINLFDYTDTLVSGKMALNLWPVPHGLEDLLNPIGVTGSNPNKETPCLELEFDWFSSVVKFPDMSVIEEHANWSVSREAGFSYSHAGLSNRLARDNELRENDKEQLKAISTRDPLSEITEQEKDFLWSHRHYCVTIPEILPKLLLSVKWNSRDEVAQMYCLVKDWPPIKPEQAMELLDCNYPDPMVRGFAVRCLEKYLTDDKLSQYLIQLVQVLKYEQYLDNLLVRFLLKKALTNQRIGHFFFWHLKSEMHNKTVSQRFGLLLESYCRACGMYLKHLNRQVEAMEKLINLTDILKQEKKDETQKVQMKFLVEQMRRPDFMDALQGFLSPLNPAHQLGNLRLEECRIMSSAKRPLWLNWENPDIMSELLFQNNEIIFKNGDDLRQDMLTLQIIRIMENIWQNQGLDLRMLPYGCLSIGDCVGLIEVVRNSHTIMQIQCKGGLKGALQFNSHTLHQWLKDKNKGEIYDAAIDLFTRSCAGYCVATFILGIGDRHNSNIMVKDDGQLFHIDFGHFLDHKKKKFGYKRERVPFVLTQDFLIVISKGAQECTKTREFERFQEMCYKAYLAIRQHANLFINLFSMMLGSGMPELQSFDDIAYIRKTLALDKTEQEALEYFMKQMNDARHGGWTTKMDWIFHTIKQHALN

Sequence of Phosphatidylinositol 4,5-bisphosphate 3-kinase catalytic subunit alpha isoform (Homo sapiens, UniProt P42336, H1047R) (P42336 whole entry H1047R, canonical isoform): as above
Sequence of Phosphatidylinositol 4,5-bisphosphate 3-kinase catalytic subunit alpha isoform (Homo sapiens, UniProt P42336) (P42336 whole entry, canonical isoform): as the sequence (P42336 whole entry H1047R, canonical isoform) above, with R1047H counted along it

Row | Compound | solubility kinetic [1] [µM] | pKi [2] | logD [3] | Ratio Ki (Homo sapiens [4]) | pEC50 [6] | Papp A→B at 3 h, 10 µM [7] [×10⁻⁶ cm/s] | clearance [8] [mL/min/kg] | bioavailability [9] [%] | Activity [10] | Ratio EC50 (Homo sapiens [5])
1 | CC(C)n1nc(N)nc1-c1cn2c(n1)-c1ccc(O[C@@H](C)C(N)=O)cc1OCC2 | – | 9.97 | 1.1 | 17 | 7.19 | 0.5 | – | – | – | 3.1
2 | NC(=O)[C@@H]1[C@H](F)CCN1c1ccc2c(c1)OCCn1cc(N3C(=O)OC[C@H]3C(F)(F)F)nc1-2 | – | 9.54 | – | 25 | – | – | – | – | – | –
3 | NC(=O)[C@@H](Nc1ccc2c(c1)OCCn1cc(N3C(=O)OC[C@H]3C(F)(F)F)nc1-2)C1CCC1 | – | 9.49 | – | 182 | – | – | – | – | – | –
4 | CO[C@@H]1CCN(c2ccc3c(c2)OCCn2cc(N4C(=O)OC[C@H]4C(F)(F)F)nc2-3)[C@@H]1C(N)=O | – | 10.01 | – | 27 | – | – | – | – | – | –
5 | CC(C)n1nc(N)nc1-c1cn2c(n1)-c1ccc(N3CCC[C@H]3C(N)=O)cc1OCC2 | 92 (≈ 38.9 µg/mL) | 10.59 | 1.5 | 8 | – | 0.3 | – | – | – | –
6 | C[C@H](Nc1ccc2c(c1)OCCn1cc(N3C(=O)OC[C@H]3C(F)(F)F)nc1-2)C(N)=O | – | 10.02 | 0.9 | 171 | 7.31 | 1 | 57 | 65 | – | 2.7
7 | C[C@H](Oc1ccc2c(c1)OCCn1cc(N3C(=O)OC[C@H]3C(F)F)nc1-2)C(N)=O | – | – | – | 52 | – | – | – | – | – | –
8 | CC(C)[C@H](Nc1ccc2c(c1)OCCn1cc(N3C(=O)OC[C@H]3C(F)(F)F)nc1-2)C(N)=O | – | 9.16 | 1.7 | 94 | 6.80 | 1.9 | 61 | 137 | – | 2.3
9 | NC(=O)[C@@H]1COCCN1c1ccc2c(c1)OCCn1cc(N3C(=O)OC[C@H]3C(F)(F)F)nc1-2 | – | 8.53 | – | 13 | – | – | – | – | – | –
10 | C[C@H](Oc1ccc2c(c1)OCCn1cc(-c3nc(CO)nn3CC(F)(F)F)nc1-2)C(N)=O | – | 10.21 | 1.5 | 15 | 7.41 | 1.5 | 50 | 5 | – | 9.5
11 | C[C@H](Oc1ccc2c(c1)OCCn1cc(-c3ncnn3CC(F)(F)F)nc1-2)C(N)=O | – | – | 2.2 | 14 | – | – | – | – | – | –
12 | NC(=O)[C@@H](Nc1ccc2c(c1)OCCn1cc(N3C(=O)OC[C@H]3CF)nc1-2)C1CC1 | – | – | 0.7 | – | – | 0.8 | 63 | – | – | –
13 | CC[C@H](Nc1ccc2c(c1)OCCn1cc(N3C(=O)OC[C@H]3C(F)(F)F)nc1-2)C(N)=O | – | 9.80 | 1.4 | 146 | 7.25 | 1.7 | 91 | 82 | – | 3.6
14 | CC1(C)C(=O)NC(=O)N1c1cn2c(n1)-c1ccc(N3CCC[C@H]3C(N)=O)cc1OCC2 | 114 (≈ 48.4 µg/mL) | 9.17 | 0.7 | 5 | – | 0.3 | – | – | – | –

Further lines, with some results ahead:

Row | solubility kinetic [1] [µM] | pKi [2] | logD [3] | Ratio Ki (Homo sapiens [4]) | pEC50 [6] | Papp A→B at 3 h, 10 µM [7] [×10⁻⁶ cm/s] | clearance [8] [mL/min/kg] | bioavailability [9] [%] | Activity [10] | Compound | Ratio EC50 (Homo sapiens [5])
15 | 44 (≈ 18.1 µg/mL) | 8.42 | 0.7 | 6 | – | – | – | – | – | NC(=O)[C@@H]1CCCN1c1ccc2c(c1)OCCn1cc(N3CCOCCC3=O)nc1-2 | –
16 | 52 (≈ 20.7 µg/mL) | 7.94 | 1.1 | 15 | – | – | – | – | – | C[C@@H]1CN(c2cn3c(n2)-c2ccc(N4CCC[C@H]4C(N)=O)cc2OCC3)C(=O)O1 | –
17 | 11 (≈ 4.53 µg/mL) | 9.49 | 0.7 | 15 | – | – | – | – | – | NC(=O)[C@@H]1CCCN1c1ccc2c(c1)OCCn1cc(N3CCCOCC3=O)nc1-2 | –
18 | 131 (≈ 55.7 µg/mL) | 10.38 | 1.8 | 22 | – | 8.4 | – | – | – | CC(C)[C@@H]1COC(=O)N1c1cn2c(n1)-c1ccc(N3CCC[C@H]3C(N)=O)cc1OCC2 | –
19 | 200 (≈ 76.7 µg/mL) | 8.24 | 0.6 | 15 | – | 3.1 | – | – | – | NC(=O)[C@@H]1CCCN1c1ccc2c(c1)OCCn1cc(N3CCOC3=O)nc1-2 | –
20 | 65 (≈ 25.8 µg/mL) | 8.60 | 0.7 | 8 | – | – | – | – | – | NC(=O)[C@@H]1CCCN1c1ccc2c(c1)OCCn1cc(N3CCOCC3=O)nc1-2 | –
21 | – | 9.10 | 1.6 | – | – | – | – | – | – | NC(=O)[C@@H]1CCCN1c1ccc2c(c1)OCCn1cc(N3C(=O)CC[C@H]3C(F)(F)F)nc1-2 | –
22 | – | 7.52 | – | 9 | – | – | – | – | – | NC(=O)[C@@H]1CCCN1c1ccc2c(c1)OCCn1cc(N3CCCOC3=O)nc1-2 | –
23 | 20 (≈ 7.95 µg/mL) | 8.19 | 1.1 | 6 | – | – | – | – | – | C[C@H]1CN(c2cn3c(n2)-c2ccc(N4CCC[C@H]4C(N)=O)cc2OCC3)C(=O)O1 | –
24 | 154 (≈ 63.4 µg/mL) | 8.50 | 0.9 | 4 | – | 2.6 | – | – | – | CO[C@H]1CCN(c2cn3c(n2)-c2ccc(N4CCC[C@H]4C(N)=O)cc2OCC3)C1=O | –
25 | 137 (≈ 58.6 µg/mL) | 8.49 | 0.8 | 8 | – | – | – | – | – | COC[C@@H]1COC(=O)N1c1cn2c(n1)-c1ccc(N3CCC[C@H]3C(N)=O)cc1OCC2 | –
26 | 2 (≈ 0.867 µg/mL) | 9.36 | 1.2 | 7 | – | – | – | – | – | NC(=O)[C@@H]1CCCN1c1ccc2c(c1)OCCn1cc(N3CCn4nccc4C3=O)nc1-2 | –
27 | 130 (≈ 58.7 µg/mL) | 9.82 | 1.4 | 15 | 7.40 | 3.2 | 35 | 57 | Active | NC(=O)[C@@H]1CCCN1c1ccc2c(c1)OCCn1cc(N3C(=O)OC[C@H]3C(F)(F)F)nc1-2 | –
28 | 150 (≈ 59.6 µg/mL) | – | 0.7 | 24 | – | 2.1 | 23 | 59 | – | C[C@@H]1COC(=O)N1c1cn2c(n1)-c1ccc(N3CCC[C@H]3C(N)=O)cc1OCC2 | –
